# Assays:
# rape = assay: Test B pre/postemergence rape; assay type: in vivo, Brassica napus
# Method in brief: (§1)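 Response is a visual 0-to-10 score relative to untreated plants, where 0 means no effect and 10 means complete control, taken twelve to sixteen days after application. Treatments went onto soil at planting and onto foliage of 1- to 4-leaf plants, using a surfactant-containing non-phytotoxic solvent.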
# bedstraw = assay: Test B pre/postemergence bedstraw; assay type: in vivo, Galium aparine
# Method in brief: as §1
# pigweed = assay: Test B pre/postemergence pigweed; assay type: in vivo, Amaranthus retroflexus
# Method in brief: as §1
# duck salad = assay: Test B flood test duck salad; assay type: in vivo, Heteranthera limosa
# Method in brief: (§2)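 Each value is a visual injury score relative to controls, with 10 meaning complete control and 0 no effect. Evaluation took place twelve to sixteen days after the 2-leaf-stage plants were treated and kept in the greenhouse.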
# purple nutsedge = assay: Test B pre/postemergence purple nutsedge; assay type: in vivo, Cyperus rotundus
# Method in brief: as §1
# bamyardgrass = assay: Test B flood test barnyardgrass; assay type: in vivo, Echinochloa crus-galli
# Method in brief: as §2
# velvetleaf = assay: Test B pre/postemergence velvetleaf; assay type: in vivo, Abutilon theophrasti
# Method in brief: as §1
# morningglory = assay: Test B pre/postemergence morningglory; assay type: in vivo, Ipomoea hederacea
# Method in brief: as §1
# rice = assay: Test B flood test rice; assay type: in vivo, Oryza sativa
# Method in brief: as §2
# sugar beet = assay: Test B pre/postemergence sugar beet; assay type: in vivo, Beta vulgaris
# Method in brief: as §1
# corn = assay: Test B pre/postemergence corn; assay type: in vivo, Zea mays
# Method in brief: as §1
# surinam grass = assay: Test B pre/postemergence surinam grass; assay type: in vivo, Brachiaria decumbens
# Method in brief: as §1
# giant foxtail = assay: Test B pre/postemergence giant foxtail; assay type: in vivo, Setaria faberii
# Method in brief: as §1
# blackgrass = assay: Test B pre/postemergence blackgrass; assay type: in vivo, Alopecurus myosuroides
# Method in brief: as §1
# cocklebur = assay: Test B pre/postemergence cocklebur; assay type: in vivo, Xanthium strumarium
# Method in brief: as §1
# [1] = Postemergence, Rate 62 g/ha, scale 0 to 10, 0 is no effect, 10 is complete control
# [2] = Postemergence, Rate 250 g/ha, scale 0 to 10, 0 no effect, 10 complete control
# [3] = Preemergence, Rate 62 g/ha, scale 0 to 10, 0 is no effect, 10 is complete control
# [4] = Preemergence, Rate 125 g/ha, scale 0 to 10 (0 no effect, 10 complete control)
# [5] = Preemergence, Rate 250 g/ha, scale of 0 to 10 where 0 is no effect and 10 is complete control
# [6] = Preemergence, Rate 500 g/ha, scale 0 (no effect) to 10 (complete control)
# [7] = Rate 125 g/ha, Postemergence, scale 0 to 10, 0 no effect, 10 complete control
# [8] = Rate 500 g/ha, Postemergence, 0 to 10 scale (0 no effect, 10 complete control)
# [9] = Rate 125 g/ha, Postemergence section (flood test species), scale 0 to 10, 0 no effect, 10 complete control
# [10] = Rate 500 g/ha, Postemergence section of Table B, 0 to 10 scale (0 no effect, 10 complete control)
# [11] = flood test, listed under Postemergence, Rate 250 g/ha, scale 0 to 10, 0 no effect, 10 complete control
compound,measurement,setting,value
Cc1ccccc1-n1c(=O)on(C(=O)N(c2ccc([N+](=O)[O-])cc2)C(C)C)c1=O [Compound 44],Rape plant response rating,rape; [1],0
same,Rape plant response rating,rape; [2],0
same,"Plant response rating, Rape",rape; [3],0
same,"Plant response rating, Rape",rape; [4],0
same,"Plant response rating, Rape",rape; [5],0
same,Rape plant response rating,rape; [6],0
same,Rape plant response rating,rape; [7],0
same,Rape plant response rating,rape; [8],0
same,Bedstraw plant response rating,bedstraw; [1],0
same,Bedstraw plant response rating,bedstraw; [2],0
same,"Plant response rating, Bedstraw",bedstraw; [3],0
same,"Plant response rating, Bedstraw",bedstraw; [4],0
same,"Plant response rating, Bedstraw",bedstraw; [5],0
same,Bedstraw plant response rating,bedstraw; [6],0
same,Bedstraw plant response rating,bedstraw; [7],0
same,Bedstraw plant response rating,bedstraw; [8],0
same,Redroot pigweed plant response rating,pigweed; [1],0
same,Redroot pigweed plant response rating,pigweed; [2],0
same,"Plant response rating, Redroot pigweed",pigweed; [3],0
same,"Plant response rating, Redroot pigweed",pigweed; [4],0
same,"Plant response rating, Redroot pigweed",pigweed; [5],0
same,Redroot pigweed plant response rating,pigweed; [6],0
same,Redroot pigweed plant response rating,pigweed; [7],0
same,Redroot pigweed plant response rating,pigweed; [8],0
same,Ducksalad plant response rating,duck salad; [1],0
same,Ducksalad plant response rating,duck salad; [9],0
same,Ducksalad plant response rating,duck salad; [10],0
same,Ducksalad plant response rating,duck salad; [11],0
same,Nutsedge plant response rating,purple nutsedge; [1],0
same,Nutsedge plant response rating,purple nutsedge; [2],0
same,"Plant response rating, Nutsedge",purple nutsedge; [3],0
same,"Plant response rating, Nutsedge",purple nutsedge; [4],0
same,"Plant response rating, Nutsedge",purple nutsedge; [5],0
same,Nutsedge plant response rating,purple nutsedge; [6],0
same,Nutsedge plant response rating,purple nutsedge; [7],0
same,Nutsedge plant response rating,purple nutsedge; [8],0
same,Barnyardgrass plant response rating,bamyardgrass; [1],0
same,Barnyardgrass plant response rating,bamyardgrass; [9],0
same,Barnyardgrass plant response rating,bamyardgrass; [10],0
same,Barnyardgrass plant response rating,bamyardgrass; [11],0
same,Velvetleaf plant response rating,velvetleaf; [1],0
same,Velvetleaf plant response rating,velvetleaf; [2],0
same,"Plant response rating, Velvetleaf",velvetleaf; [3],0
same,"Plant response rating, Velvetleaf",velvetleaf; [4],0
same,"Plant response rating, Velvetleaf",velvetleaf; [5],0
same,Velvetleaf plant response rating,velvetleaf; [6],0
same,Velvetleaf plant response rating,velvetleaf; [7],0
same,Morningglory plant response rating,morningglory; [1],0
same,Morningglory plant response rating,morningglory; [2],0
same,"Plant response rating, Morningglory",morningglory; [3],0
same,"Plant response rating, Morningglory",morningglory; [4],0
same,"Plant response rating, Morningglory",morningglory; [5],0
same,Morningglory plant response rating,morningglory; [6],0
same,Morningglory plant response rating,morningglory; [7],0
same,Morningglory plant response rating,morningglory; [8],1
same,Rice plant response rating,rice; [1],0
same,Rice plant response rating,rice; [9],0
same,Rice plant response rating,rice; [10],0
same,Rice plant response rating,rice; [11],0
same,Sugarbeets plant response rating,sugar beet; [1],0
same,Sugarbeets plant response rating,sugar beet; [2],0
same,"Plant response rating, Sugarbeets",sugar beet; [3],0
same,"Plant response rating, Sugarbeets",sugar beet; [4],0
same,"Plant response rating, Sugarbeets",sugar beet; [5],0
same,Sugarbeets plant response rating,sugar beet; [6],0
same,Sugarbeets plant response rating,sugar beet; [7],0
same,Corn plant response rating,corn; [1],0
same,Corn plant response rating,corn; [2],0
same,"Plant response rating, Corn",corn; [3],0
same,"Plant response rating, Corn",corn; [4],0
same,"Plant response rating, Corn",corn; [5],0
same,Corn plant response rating,corn; [6],0
same,Corn plant response rating,corn; [7],0
same,Corn plant response rating,corn; [8],0
same,B. signalgrass plant response rating,surinam grass; [1],0
same,B. signalgrass plant response rating,surinam grass; [2],0
same,"Plant response rating, B. signalgrass",surinam grass; [3],0
same,"Plant response rating, B. signalgrass",surinam grass; [4],0
same,"Plant response rating, B. signalgrass",surinam grass; [5],0
same,B. signalgrass plant response rating,surinam grass; [6],0
same,B. signalgrass plant response rating,surinam grass; [7],0
same,B. signalgrass plant response rating,surinam grass; [8],0
same,Giant foxtail plant response rating,giant foxtail; [1],0
same,Giant foxtail plant response rating,giant foxtail; [2],0
same,"Plant response rating, Giant foxtail",giant foxtail; [3],0
same,"Plant response rating, Giant foxtail",giant foxtail; [4],0
same,"Plant response rating, Giant foxtail",giant foxtail; [5],0
same,Giant foxtail plant response rating,giant foxtail; [6],1
same,Giant foxtail plant response rating,giant foxtail; [7],0
same,Giant foxtail plant response rating,giant foxtail; [8],0
same,Blackgrass plant response rating,blackgrass; [1],0
same,Blackgrass plant response rating,blackgrass; [2],0
same,"Plant response rating, Blackgrass",blackgrass; [3],0
same,"Plant response rating, Blackgrass",blackgrass; [4],0
same,"Plant response rating, Blackgrass",blackgrass; [5],0
same,Blackgrass plant response rating,blackgrass; [6],1
same,Blackgrass plant response rating,blackgrass; [7],0
same,Blackgrass plant response rating,blackgrass; [8],0
same,Cocklebur plant response rating,cocklebur; [1],0
same,Cocklebur plant response rating,cocklebur; [2],0
same,"Plant response rating, Cocklebur",cocklebur; [3],0
same,"Plant response rating, Cocklebur",cocklebur; [5],0
same,Cocklebur plant response rating,cocklebur; [6],0
same,Cocklebur plant response rating,cocklebur; [7],0
same,Cocklebur plant response rating,cocklebur; [8],0
